Where a name gives a salt, the structure may show the parent alone.

Sequence of HPK1 (Q92918 whole entry): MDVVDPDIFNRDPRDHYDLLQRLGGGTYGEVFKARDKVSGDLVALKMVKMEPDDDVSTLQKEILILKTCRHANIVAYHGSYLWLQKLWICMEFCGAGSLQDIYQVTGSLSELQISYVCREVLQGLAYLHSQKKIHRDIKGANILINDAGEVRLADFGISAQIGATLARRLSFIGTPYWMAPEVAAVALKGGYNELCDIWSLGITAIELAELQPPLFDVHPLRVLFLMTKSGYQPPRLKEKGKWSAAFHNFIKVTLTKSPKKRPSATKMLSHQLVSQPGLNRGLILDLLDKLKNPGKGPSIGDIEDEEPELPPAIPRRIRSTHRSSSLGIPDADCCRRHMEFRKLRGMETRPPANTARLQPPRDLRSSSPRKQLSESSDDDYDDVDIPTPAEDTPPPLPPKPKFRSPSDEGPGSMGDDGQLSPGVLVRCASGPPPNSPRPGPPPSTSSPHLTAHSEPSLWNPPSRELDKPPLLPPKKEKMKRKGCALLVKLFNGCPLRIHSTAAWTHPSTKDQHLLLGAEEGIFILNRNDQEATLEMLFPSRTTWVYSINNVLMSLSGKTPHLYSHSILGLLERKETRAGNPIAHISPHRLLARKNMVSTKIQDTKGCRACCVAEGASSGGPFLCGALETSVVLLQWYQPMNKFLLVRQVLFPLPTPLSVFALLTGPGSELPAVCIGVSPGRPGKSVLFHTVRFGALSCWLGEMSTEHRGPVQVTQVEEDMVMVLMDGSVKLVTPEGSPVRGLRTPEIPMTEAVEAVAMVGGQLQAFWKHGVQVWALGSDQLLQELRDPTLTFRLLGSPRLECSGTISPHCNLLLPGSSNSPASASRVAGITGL

This assay addresses HPK1 (Homo sapiens (Human), UniProt Q92918). Put plainly: HPK1 biochemical enzyme assay (microfluidic mobility shift assay). As to conditions: 1.5 nM HPK1, ATP 1 mM final, 30 min preincubation, 60 min at RT, Caliper EZ Reader; read-out: HPK1 1000UMATP caliper IC50. A digest of the protocol: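 Mobility shift readout of HPK1 activity after a 60 min RT reaction with 1 mM ATP, 1 μM substrate and 5 mM MgCl2. Enzyme/substrate mix was first exposed to compounds for 30 min, using ten-point curves topping at 3 μM final.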
What is called IC50 is the midpoint of a concentration-inhibition curve. With `CN1CCC(C)(c2cccc(Nc3cnc(-c4ccnc5c4ccn5C)c4c3C(=O)NC4)n2)CC1` [I-575, 7-((6-(l,4-dimethyl-piperidin-4-yl)pyridin-2-yl)amino)-4-(1-methyl-1H-pyrrolo[2,3-b]pyridin-4-yl)-2,3-dihydro-1H-pyrrolo[3,4-c]pyridin-1-one], the IC50 lay in the range of 100 to 1000 nM.
Regarding `Cn1ccc2c(-c3ncc(Nc4ccc([C@@H]5CCOC5)c(CN)n4)c4c3CNC4=O)ccnc21` [I-836, (S)-7-((6-(aminomethyl)-5-(THF-3-yl)pyridin-2-yl)amino)-4-(1-methyl-1H-pyrrolo[2,3-b]pyridin-4-yl)-2,3-dihydro-1H-pyrrolo[3,4-c]pyridin-1-one], the IC50 is less than 100 nM.
The figure for `Cc1cc2[nH]cc(-c3ccc(Nc4ccc(N5CCN(C)CC5)cn4)c4c3CNC4=O)c2cn1` [I-37, 7-[[5-(4-methylpiperazin-1-yl)-2-pyridyl]amino]-4-(6-methyl-1H-pyrrolo[3,2-c]pyridin-3-yl)isoindolin-1-one] is less than 100 nM.
For `Cc1cc(-c2ccc(Nc3ccc(N4CCNCC4)cn3)c3c2CNC3=O)c2ccn(C)c2n1` [I-103, 4-(1,6-dimethylpyrrolo [2,3-b]pyridin-4-yl)-7-[(5-piperazin-1-yl-2-pyridyl)amino] isoindolin-1-one] the value was 100 to 1000 nM.
For `Cn1ccc2c(-c3ccc(Nc4ccc(N5CCC(O)CC5)cn4)c4c3CNC4=O)cccc21` [I-161, 7-[[5-(4-hydroxy-1-piperidyl)-2-pyridyl]amino]-4-(1-methylindol-4-yl)isoindolin-1-one] the value was less than 100 nM; for `Cc1cccc2c(-c3ccc(Nc4ccc(N5CCNCC5)cn4)c4c3CNC4=O)cnn12` [I-84, 4-(7-methylpyrazolo [1,5-a]pyridin-3-yl)-7-[(5-piperazin-1-yl-2-pyridyl)amino] isoindolin-1-one], less than 100 nM.
In the case of `CN(C)Cc1nc(Nc2ccc(-c3cnc4cc(C(F)F)ccn34)c3c2C(=O)NC3)ccc1C1CCOC1` (stereo in doubt) [I-752, (S)-4-(7-(difluoromethyl)-imidazo[1,2-a]pyridin-3-yl)-7-((6-((dimethylamino)-methyl)-5-(tetrahydrofuran-3-yl)pyridin-2-yl)amino)isoin-dolin-1-one], the IC50 is less than 100 nM.
As to `Cc1ccc2c(-c3ccc(Nc4ccc(N5CCN(C)CC5)cn4)c4c3CNC4=O)c[nH]c2c1` [I-23, 4-(6-methyl-1H-indol-3-yl)-7-[[5-(4-methylpiperazin-1-yl)-2-pyridyl]amino]isoindolin-1-one], the IC50 was in the range of 100 to 1000 nM.
The figure for `CN1CCN(c2ccc(Nc3ccc(-c4cnc5c(ccn5C)c4)c4c3C(=O)NC4)nc2)CC1` [I-44, 7-[[5-(4-methylpiperazin-1-yl)-2-pyridyl]amino]-4-(1-methylpyrrolo [2,3-b]pyridin-5-yl)isoindolin-1-one] is 100 to 1000 nM; for `Cn1ccc2c(-c3ccc(Nc4ccc(N5CCC[C@H](N)C5)cn4)c4c3CNC4=O)ccnc21` [I-94, 7-[[5-[(3S)-3-amino-1-piperipyl]-2-pyridyl]amino]-4-(l-methylpyrrolo [2,3-b]pyridin-4-yl)isoindolin-1-one] it is less than 100 nM; for `O=C1NCc2c(-c3cnc4c(F)cccn34)ccc(Nc3ccc(N4CCNCC4)cn3)c21` [I-88, 4-(8-fluoroimidazo [1,2-a]pyridin-3-yl)-7-[(5-piperazin-1-yl-2-pyridyl)amino] isoindolin-1-one] it is less than 100 nM.
For `Cn1ccc2c(-c3ncc(Nc4ccc([C@H]5CCOC5)c(CN)n4)c4c3CNC4=O)ccnc21` [I-829, (R)-7-((6-(aminomethyl)-5-(THF-3-yl)pyridin-2-yl)amino)-4-(1-methyl-1H-pyrrolo[2,3-b]pyridin-4-yl)-2,3-dihydro-1H-pyrrolo[3,4-c]pyridin-1-one] the value was less than 100 nM.
The figure for `O=C1NCc2c(-c3cnc4cc(F)ccn34)ncc(Nc3ccc(N4CCCC(O)(CN5CCOCC5)C4)cn3)c21` (stereo not shown) [I-654, 4-(7-fluoroimidazo [1,2-a]pyridin-3-yl)-7-((5-(3-hydroxy-3-(morpholinomethyl)piperidin-1-yl)pyridin-2-yl)amino)-2.3-dihydro-1H-pyrrolo[3,4-c]pyridin-1-one] is less than 100 nM.
Consider `CN1CCN(c2ccc(Nc3ccc(-c4cnc5cccnn45)c4c3C(=O)NC4)nc2)CC1` [I-59, 4-imidazo[1,2-b]pyridazin-3-yl-7-[[5-(4-methylpiperazin-1-yl)-2-pyridyl]amino] isoindolin-1-one], for which the IC50 is less than 100 nM.
Consider `O=C1NCc2c(-c3cnc4cnccn34)ccc(Nc3ccc(N4CC[C@@H](F)[C@H](O)C4)cn3)c21` [I-434, 7-((5-((3R,4R)-4-fluoro-3-hydroxypiperidin-1-yl)pyridin-2-yl)amino)-4-(imidazo[1,2-a]pyrazin-3-yl)isoindolin-1-one], for which the concentration for half-maximal inhibition (IC50) is less than 100 nM.
As for `CO[C@@H]1CC[C@@H](CO)N(c2ccc(Nc3ccc(-c4cnn5c4CCCC5)c4c3C(=O)NC4)nc2)C1` (stereo in doubt) [I-572, 7-((5-((2R,5R)-2-(hydroxymeth-yl)-5-methoxy-piperidin-1-yl)pyridin-2-yl)amino)-4-(4,5,6,7-tetralndropyra-zolo[1,5-a]pyridin-3-yl)isoindolin-1-one], the IC50 was less than 100 nM.
The figure for `Cn1ccc2c(-c3ncc(Nc4ccc(N5C[C@H]6C[C@@H]5CO6)cn4)c4c3CNC4=O)ccnc21` [I-289, 7-((5-((1R,4R)-2-oxa-5-azabicyclo[2.2.1]heptan-5-yl)pyridin-2-yl)amino)-4-(1-methyl-1H-pyrrolo[2,3-b]pyridin-4-yl)-2,3-dihydro-1H-pyrrolo[3,4-c]pyridin-1-one] is less than 100 nM.
As for `O=C1NCc2c(-c3cnc4c(F)cccn34)ccc(Nc3ccc(N4CCC(O)CC4)cn3)c21` [I-130, 4-(8-fluoroimidazo [1,2-a]pyridin-3-yl)-7-[[5-(4-hydroxy-1-piperidyl)-2-pyridyl]amino] isoindolin-1-one], the half-inhibitory concentration (IC50) is less than 100 nM.
For `O=C1NCc2c(-c3cnc4cc(F)ccn34)ccc(Nc3ccc(N4CCC(CN5CCOCC5)CC4)cn3)c21` [I-428, 4-(7-fluoroimidazo [1,2-a]pyridin-3-yl)-7-((5-(4-(morpholinomethyl)piperidin-1-yl)pyridin-2-yl)amino)isoin-dolin-1-one] the value was less than 100 nM; for `CN(C)Cc1nc(Nc2ccc(-c3cnc4cc(F)ccn34)c3c2C(=O)NC3)ccc1C1(F)CCOCC1` [I-834, 7-((6-((dimethylamino)-methyl)-5-(4-fluorotetrahy-dro-2H-pyran-4-yl)pyridin-2-yl)amino)-4-(7-fluoroimidazo [1,2-a]pyridin-3-yl)isoindolin-1-one], less than 100 nM.
As for `Cn1cc(-c2ccc(Nc3ccc(N4CCC(O)CC4)cn3)c3c2CNC3=O)c2ccnnc21` [I-374, 7-((5-(4-hydroxy-piperidin-1-yl)pyridin-2-yl)amino)-4-(7-methyl-7H-pyrrolo[2,3-c]pyridazin-5-yl)isoindolin-1-one], the half-inhibitory concentration (IC50) was less than 100 nM.
The figure for `CN(C)C(C)(C)[C@H]1CN(c2ccc(Nc3ccc(-c4cnc5cnccn45)c4c3C(=O)NC4)nc2)CCO1` [I-618, (R)-7-((5-(2-(2-(dimethylami-no)propan-2-yl)morpho-lino)pyridin-2-yl)amino)-4-(imidazo[1,2-a]pyrazin-3-yl)isoindolin-1-one] is less than 100 nM.
With “(S)-7-((6- ((dimethylamino)- methyl)-5- (tetrahydrofuran- 3-yl)pyridin- 2-yl)amino)-4- (8-methylimidazo [1,2-a]pyridin- 3-yl)isoindolin- 1-one [I-695]”, the IC50 was less than 100 nM.
For `CN1CCC[C@H](c2cccc(Nc3cnc(-c4ccnc5c4ccn5C)c4c3C(=O)NC4)n2)C1` [I-419, (S)-4-(1-methyl-1H-pyrrolo[2,3-b]pyridin-4-yl)-7-((6-(1-methylpiperidin-3-yl)pyridin-2-yl)amino)-2.3-dihydro-1H-pyrrolo[3,4-c]pyridin-1-one] the value was greater than 1000 nM; for `Cn1ccc2c(-c3ncc(Nc4cccc(N5CCCNCC5)n4)c4c3CNC4=O)ccnc21` [I-240, 7-[[6-(1,4-diazepan-1-yl)-2-pyridyl]amino]-4-(1-methylpyrrolo [2,3-b]pyridin-4-yl)-2,3-dihydropyrrolo [3,4-c]pyridin-1-one], 100 to 1000 nM; for `O=C1NCc2c(-c3cnc4cc(CO)ccn34)ccc(Nc3ccc(N4CCOCC4)cn3)c21` [I-196, 4-[7-(hydroxymeth-yl)imidazo[1,2-a]pyridin-3-yl]-7-[(5-morpholino-2-pyridyl)amino] isoindolin-1-one], less than 100 nM.
For `O=C1NCc2c(-c3cnc4n3CCCC4)ccc(Nc3ccc(N4CCC(O)CC4)cn3)c21` [I-296, 7-((5-(4-hydroxy-piperidin-1-yl)pyridin-2-yl)amino)-4-(5,6,7,8-tetrahydro-imidazo[1,2-a]pyridin-3-yl)isoindolin-1-one] the value was 100 to 1000 nM.
`Cc1ccc2ncc(-c3ccc(Nc4ccc(N5CCC(O)CC5)cn4)c4c3CNC4=O)n2c1` [I-134, 7-[[5-(4-hydroxy-1-piperidyl)-2-pyridyl]amino]-4-(6-methylimidazo [1,2-a]pyridin-3-yl)isoindolin-1-one]: the IC50 is less than 100 nM.
For `Cc1ccn2c(-c3ccc(Nc4ccc(N5CCC(O)CC5)cn4)c4c3CNC4=O)cnc2c1` [I-126, 7-[[5-(4-hydroxy-1-piperidyl)-2-pyridyl]amino]-4-(7-methylimidazo [1,2-a]pyridin-3-yl)isoindolin-1-one] the value was less than 100 nM.
The figure for `CN1CCN(c2ccc(Nc3ccc(-c4ccnc5c4ccn5Cc4ccccc4)c4c3C(=O)NC4)nc2)CC1` [I-257, 4-(1-benzyl-1H-pyrrolo[2,3-b]pyridin-4-yl)-7-((5-(4-methylpiperazin-1-yl)pyridin-2-yl)amino)isoin-dolin-1-one] is 100 to 1000 nM.
For `O=C1NCc2c(-c3cnc4cc(F)ccn34)ccc(Nc3ccc(C4CCOC4)c(CNCC4CC4)n3)c21` (stereo not shown) [I-849, 7-[[6-[(cyclopropylmethylamino)methyl]-5-tetrahydrofuran-3-yl-2-pyridyl]amino]-4-(7-fluoroimidazo [1,2-a]pyridin-3-yl)isoindolin-1-one Formic acid salt], the IC50 is less than 100 nM.

Source of the values: US11021481B2, “Substituted isoindolin-1-ones and 2,3-dihydro-1h-pyrrolo[3,4-c]pyridin-1-ones as HPK1 antagonists” (Nimbus Saturn, Inc., priority 2019, dated 2021).
